Experimental data from US6664244B1, “Pet foods” (Nihon Shokuhin Kako Co., Ltd., priority 1998, dated 2003).

Key:
beagles [1] = test: Experiments on solution of obesity (body weight change in obese beagles); assay type: in vivo; conditions: beagles made obese by 2 months of high-energy foods; feed with 23.4 g corn starch replaced with β-CD; about 275 kcal per metabolic body weight per day (FIG. 2)
From the text: Ten beagles were fed high-energy foods for 2 months before the experiment, so that they became obese. At the beginning of the experiment, they were divided in […] so as to make uniform the average body weight of each group as much as possible. The feed used in the reference group was the same as that of Experiment 1 and the same feed in which 23.4 g of corn starch was replaced with β-CD was used in the β-CD group. The feeding amount for one dog, per day was controlled without changing the ratio of components so that the amount of the basic feed (Hills c/d Dry and lard) is about 275 kcal per metabolic body weight (kg0.75).

beagles [2] = test: Experiments on suppression of obesity (body weight change, high-fat feed); assay type: in vivo; conditions: healthy beagles; Hills c/d Dry 200 g + lard 117 g basic feed, corn starch replaced with 23.4 g β-CD; about 400 kcal per metabolic body weight per day; vs reference group (FIG. 1)
Description: Ten healthy beagles were divided in 2 groups consisting of 5, respectively. Hills c/d Dry were fed for 1 week before the experiment. As for feeds in this experiment, the one in which 200 g of Hills c/d Dry blended with 117 g of lard was used as a basic feed. In the reference group, the one in which 34 g of cornstarch was added to the above basic feed is used. In the experimental group, the feed used is the same one as used in the reference group except that all corn starch was replaced with 23.4 g of β-CD (β-cyclodextrin). The feeding amount for one dog, per day, was controlled without changing the ratio of components so that the amount of the basic feed (Hills c/d Dry and lard) is about 400 kcal per metabolic body weight (kg0.75)

Structure (SMILES): OC[C@H]1O[C@@H]2O[C@H]3[C@H](O)[C@@H](O)[C@@H](O[C@H]4[C@H](O)[C@@H](O)[C@@H](O[C@H]5[C@H](O)[C@@H](O)[C@@H](O[C@H]6[C@H](O)[C@@H](O)[C@@H](O[C@H]7[C@H](O)[C@@H](O)[C@@H](O[C@H]8[C@H](O)[C@@H](O)[C@@H](O[C@H]1[C@H](O)[C@H]2O)O[C@@H]8CO)O[C@@H]7CO)O[C@@H]6CO)O[C@@H]5CO)O[C@@H]4CO)O[C@@H]3CO [β-CD, β-cyclodextrin]
- body weight (beagles [1]): significantly reduced
- increase of body weight (beagles [2]): significantly suppressed
